{"source": "patent US10669296B2", "about": "“LXR agonists and uses thereof” (Rgenix, Inc., priority 2014, dated 2020)", "key": {"B16F10 melanoma cells": {"test_system": "B16F10 melanoma cells", "test": "In vivo primary tumor growth assay", "parameters": "species or system mouse", "settings": "B16F10 in C57B16 mice", "description": "For primary tumor growth studies, 5×10^4 B16F10 melanoma cells were mixed 1:1 with matrigel and subcutaneously injected into the lower flanks of 6-week old C57B16 mice. Upon the formation of palpable tumors, 4-5 days after tumor cell injection, 10 mice were randomly assigned to groups eating a control diet or a diet supplemented with compound 8 (5 and 25 mg/kg). Tumor volume was calculated as (small diameter)^2×(large diameter)/2 and tumor growth inhibition was measured relative to vehicle control."}, "Cancer cells (MeWo)": {"test_system": "Cancer cells (MeWo)", "test": "Matrigel invasion assay", "assay_type": "cell-based", "settings": "1 μM drug, invasion 24 h", "description": "Cancer cells (MeWo) were pre-treated in presence of 1 μM drug or control (DMSO) for 72 h after which cancer cells were switched to serum-starvation in 0.2% FBS DMEM-based media for 16 h in the presence of the drug or control, respectively. Trans-well invasion chambers (354480, BD Biosciences, Bedford, Mass.) were pre-equilibrated in DMEM-based media prior to the beginning of the assay by adding 0.5 ml of starvation media to the top and bottom chambers. After 30 min, the media in the top chamber was removed, and 0.5 ml of media containing 1×10^5 cancer cells in the presence of the drug, was added into each matrigel-coated trans-well insert. Cells were allowed to invade through the matrigel-coated inserts for 24 h at 37° C."}, "ApoE [1]": {"test_system": "ApoE", "test": "Pharmacodynamic analysis of ApoE in peripheral blood lymphocytes (qRT-PCR)", "assay_type": "in vivo, mouse", "settings": "mice", "description": "In Vivo Dosing and Sample Collection: 6-7 week old […] received a single dose of Compound 8 at 52.6 mg/kg, formulated in 2% DMSO/20% Propylene Glycol/78% 0.5% Methylcellulose (400 cp) at a final concentration of 4.62 mg/mL by oral gavage. Bleeds were taken at 0.5 h, 2 h, 4 h, 8 h, 16 h, 24 h and 48 h. Mice were bled twice, the first bleed was drawn submandibular and the second through intracardiac puncture. Blood was collected in Dipotassium EDTA Microtainer tubes (02-669-38, Fisher). To isolate peripheral blood lymphocytes, blood samples were centrifuged at 2000 g for 5 min. After separation of the plasma, Erythrocytes were lysed in 1 mL Erythrocyte Lysis (EL) buffer (79217, Qiagen) and incubation at room temperature for 20 min. Samples were centrifuged at 400 g for 10 min, and peripheral blood lymphocytes washed once in EL buffer, followed by one wash in PBS.\nApoE Gene Expression Analysis by qRT-PCR: RNA was extracted from peripheral blood lymphocytes using the Total RNA Purification Micro Kit (35300, Norgen, Thorold, Canada). 200-300 ng of total RNA was then reverse transcribed into cDNA using the Verso cDNA synthesis Kit (AB-1453B, Fisher Scientific) and 6 ng of the resulting cDNA was mixed with SYBR Green PCR Mater Mix (4385612, Applied Biosystems) and quantitative real-time PCR amplification was performed using an ABI Prism 7900HT Real-Time PCR System (Applied Biosystems, Austin, Tex.). Each PCR reaction was carried out in quadruplicates. Gene expression was normalized to GAPDH, which was used as an endogenous control. Primers used as described in Example 86.\nResults: The results of ApoE induction in vivo by compound 8 is shown in Table 9 where Pre-Dose represents endogenous levels of ApoE induction prior to dosing, n is the number of samples analyzed, and values are expressed as fold induction over pre-dose endogenous ApoE levels (normalized to 1.0). Peak induction of compound 8 is >6-fold over background at 4 h."}, "ApoE [2]": {"test_system": "ApoE", "test": "ApoE gene expression analysis by qRT-PCR in MeWo cancer cells", "assay_type": "cell-based", "settings": "Homo sapiens, MeWo, 48 h; for Emax at 1 µM / Emax at 10 µM: read-out: ApoE gene expression in relation to GW3965 at 1 μM (100%)", "description": "Cancer cells (MeWo) were treated in presence of drug or control (DMSO) at indicated concentrations for 48 h. RNA was extracted from whole cell lysates using the Total RNA Purification Kit (17200, Norgen, Thorold, Canada). 600 ng of total RNA was then reverse transcribed into cDNA using the Verso cDNA Synthesis Kit (AB-1453/B, Fisher Scientific). 6 ng of the resulting cDNA was then mixed with SYBR green PCR Master Mix (4309155, Applied Biosystems) and the appropriate primers. Each reaction was performed in quadruplicate, and mRNA expression was quantified by performing real-time PCR amplification using a StepOne Plus Real-Time PCR System (Applied Biosystems). GAPDH was used as an endogenous control for normalization. EC50 values were calculated using Prism6 software and plotting expression values versus drug concentration. The following primers were used: [table] The results are shown in relation to GW3965 ApoE expression at 1 μM (i.e. 100%)."}, "LXRβ": {"biological_target": "LXRβ (Homo sapiens (Human), UniProt P55055)", "sequence (P55055 whole entry)": "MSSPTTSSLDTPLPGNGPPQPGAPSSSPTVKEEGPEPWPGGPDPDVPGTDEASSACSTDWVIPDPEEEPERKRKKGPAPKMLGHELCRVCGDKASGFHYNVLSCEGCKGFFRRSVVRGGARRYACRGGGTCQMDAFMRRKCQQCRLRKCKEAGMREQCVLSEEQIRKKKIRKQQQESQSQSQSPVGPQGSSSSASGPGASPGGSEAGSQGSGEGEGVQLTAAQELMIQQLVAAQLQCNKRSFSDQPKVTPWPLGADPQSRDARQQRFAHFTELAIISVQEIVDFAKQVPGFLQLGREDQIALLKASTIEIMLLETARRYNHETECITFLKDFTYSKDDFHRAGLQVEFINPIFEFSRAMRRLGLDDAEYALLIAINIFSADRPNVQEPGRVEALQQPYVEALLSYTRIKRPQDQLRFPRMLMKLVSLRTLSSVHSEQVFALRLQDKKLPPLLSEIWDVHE", "test": "ligand sensing assay (LiSA), LXRβ", "assay_type": "biochemical", "settings": "ratio of EC50 values", "excerpt": "As used herein, reference to the activity of an LXR agonist at LXRα and LXRβ refer to the activity as measured using the ligand sensing assay (LiSA) described in Spencer et al. J. Med. Chem. 2001, 44, 886-897, incorporated herein by reference. […] For example, the methods of the invention can be performed using an LXRβ agonist having activity for LXRβ that is at least 3-fold greater than the activity of the agonist for LXRα, or having activity for LXRβ that is at least 10-fold greater than the activity of the agonist for LXRα, or having activity for LXRβ that is at least 100-fold greater than the activity of the agonist for LXRα, or having activity for LXRβ that is at least within 3-fold of the activity of the agonist for LXRα. The term “greater activity” in the LiSA assay refers to a lower EC50."}, "Aβ plaque burden": {"test_system": "Aβ plaque burden", "settings": "mouse model of Alzheimer's disease, Jiang et al., Neuron 2008; cited from earlier work"}}, "note": "Where two headings read alike, the source gives them in different places."}
{"smiles": "CS(=O)(=O)c1cc(OCCCN(Cc2cccc(C(F)(F)F)c2Cl)CC(c2ccccc2)c2ccccc2)cc(F)c1CO", "note": "[Compound 8, {4-[3-({[2-chloro-3-(trifluoromethyl)phenyl]methyl}(2,2-diphenylethyl)amino)propoxy]-2-fluoro-6-methanesulfonylphenyl}methanol]", "values": [{"measurement": "Mean tumor volume (mm3) (+/−S.E.M.)", "setting": "B16F10 melanoma cells; 5 mg/kg in diet", "value": "686 (+/−97) mm3"}, {"measurement": "Tumor growth inhibition % of control (+/−S.E.M.)", "setting": "B16F10 melanoma cells; 5 mg/kg in diet", "value": "13% (+/−12%)"}, {"measurement": "Mean tumor volume (mm3) (+/−S.E.M.)", "setting": "B16F10 melanoma cells; 25 mg/kg in diet", "value": "475 (+/−56) mm3"}, {"measurement": "% of Cells Migrated Compared to Control", "setting": "Cancer cells (MeWo)", "value": "<50", "unit": "%"}, {"measurement": "Fold ApoE Induction Over Pre-Dose Level (+/−S.D.)", "setting": "ApoE [1]; 0.5 h after single oral dose 52.6 mg/kg", "value": "1.3 (+/−0.3) fold"}, {"measurement": "Fold ApoE Induction Over Pre-Dose Level (+/−S.D.)", "setting": "ApoE [1]; 2 h after single oral dose 52.6 mg/kg", "value": "2.7 (+/−0.5) fold"}, {"measurement": "Fold ApoE Induction Over Pre-Dose Level (+/−S.D.)", "setting": "ApoE [1]; 4 h after single oral dose 52.6 mg/kg", "value": "6.3 (+/−1.8) fold"}, {"measurement": "Fold ApoE Induction Over Pre-Dose Level (+/−S.D.)", "setting": "ApoE [1]; 8 h after single oral dose 52.6 mg/kg", "value": "3.8 (+/−2.4) fold"}, {"measurement": "Fold ApoE Induction Over Pre-Dose Level (+/−S.D.)", "setting": "ApoE [1]; 16 h after single oral dose 52.6 mg/kg", "value": "0.3 (+/−0.4) fold"}, {"measurement": "Fold ApoE Induction Over Pre-Dose Level (+/−S.D.)", "setting": "ApoE [1]; 24 h after single oral dose 52.6 mg/kg", "value": "0.4 (+/−0.6) fold"}, {"measurement": "Fold ApoE Induction Over Pre-Dose Level (+/−S.D.)", "setting": "ApoE [1]; 48 h after single oral dose 52.6 mg/kg", "value": "0.1 (+/−0.3) fold"}, {"measurement": "EC50", "setting": "ApoE [2]", "value": "< 1000", "unit": "nM"}, {"measurement": "Emax at 1 µM", "setting": "ApoE [2]", "value": "> 80", "unit": "%"}, {"measurement": "Emax at 10 µM", "setting": "ApoE [2]", "value": "> 80", "unit": "%"}]}
{"smiles": "O=C(O)Cc1cccc(OCCCN(Cc2cccc(C(F)(F)F)c2Cl)CC(c2ccccc2)c2ccccc2)c1", "note": "[GW3965, reference compound]", "values": [{"measurement": "fold greater activity for LXRβ compared to LXRα", "setting": "LXRβ", "value": "approximately 6 fold"}, {"measurement": "% of Cells Migrated Compared to Control", "setting": "Cancer cells (MeWo)", "value": "<70", "unit": "%"}, {"measurement": "amyloid-beta plaques", "setting": "Aβ plaque burden", "value": "therapeutic reduction of amyloid-beta plaques"}, {"measurement": "EC50", "setting": "ApoE [2]", "value": "< 300", "unit": "nM"}, {"measurement": "Emax at 1 µM", "setting": "ApoE [2]; reference value", "value": 100, "unit": "%"}, {"measurement": "Emax at 10 µM", "setting": "ApoE [2]", "value": "> 40", "unit": "%"}]}
